This note sets out measurements from patent US20040235919A1, “Phenylacetamido-thiazole derivatives, process for the preparation and their use as antitumor agents” (priority 2001, published 2004).

The assay deals with cdk2/cyclin A (Homo sapiens, UniProt P24941). Put plainly: Inhibition assay of cdk2/Cyclin A activity (SPA). Format: biochemical. The following applies: tested against cdk2/cyclin A; read-out: inhibitory activity, expressed as IC50. The source says: When the number of compounds to be tested became consistent, the need for a fast and homogeneous screening assay was raised. Thus a method of assay based on the use of the SPA technology (Amersham Pharmacia Biotech) was set up. The assay consists of the transfer of radioactivity labelled phosphate moiety by the kinase to a biotinylated substrate. The resulting 33P-labelled biotinylated product is allowed to bind to streptavidin-coated SPA beads (biotin capacity 130 pmol/mg), and light emitted was measured in a scintillation counter.
Inhibition Assay of cdk2/Cyclin A Activity
Kinase reaction: 4 microM in house biotinylated histone H1 (Sigma # H-5505) substrate, 10 microM ATP (0.1 microCi P^33gamma-ATP), 4.2 ng cdk2/Cyclin A complex, inhibitor in a final volume of 30 microl buffer (TRIS HCl 10 mM pH 7.5, MgCl2 10 mM, DTT 7.5 mM+0.2 mg/ml BSA) were added to each well of a 96 U bottom. […]
After 20 min. incubation for substrate capture, 100 microl 5M CsCl were added to allow statification of beads to the top of the plate and let stand 4 hours before radioactivity counting in the Top-Count instrument
IC50 determination: inhibitors were tested at different concentrations ranging from 0.0015 to 10 microM. Experimental data were analyzed by the computer program GraphPad Prizm using the four parameter logistic equation: […]

SMILES strings stand for the structures.

In general, IC50 refers to the midpoint of a concentration-inhibition curve. On to `CC(=O)Nc1ccc([C@H](C)C(=O)Nc2ncc(C(C)C)s2)cc1` [(2S)-2-[4-(acetylamino)phenyl]-N-(5-isopropyl-1,3-thiazol-2-yl)propanamide], for which the IC50 amounted to 11 nM.

For the compound `CC(=O)Nc1ccc(CC(=O)Nc2ncc(C(C)C)s2)cc1` [N-(5-isopropyl-1,3-thiazol-2-yl)-2-[4-(acetylamino)phenyl]acetamide], the half-maximal inhibitory concentration (IC50) stood at 110 nM.
